These results are taken from patent publication US20240254140A1, “COMPOUNDS AND THEIR USE IN THE TREATMENT OF BACTERIAL INFECTION” (Hoffmann-La Roche Inc., priority 2021, published 2024).

Structures are written as SMILES. ≈ marks a conversion by molar mass, not a printed value. Some results are limits rather than exact numbers.

The test system of the assay is Escherichia coli ATCC 25922. As to the kind of experiment: Minimal Inhibitory Concentration (MIC) determination, broth microdilution. It counts as cell-based. The following applies: ATCC25922; strain Escherichia coli ATCC 25922; broth microdilution per CLSI M07-A10; 18-24 hours at 35±2° C.; lowest concentration for complete growth inhibition. How it is done: Minimal Inhibitory Concentration (MIC) Determination:
The MIC of antibacterial compounds against multiple species and strains was determined using the broth microdilution method according to M07-A10 Clinical and Laboratory Standards Institute (CLSI) guidelines, using the appropriate broth medium. In short, the compound plates were prepared by dispensing 100 μL of each stock solution in the first well of a 96 well microtiter plate (MTP) at a concentration 100-fold higher than the final concentration desired in broth. Eleven serial 2-fold dilutions of the highest concentration were made in DMSO for new compounds and in water (or appropriate solution) for reference compounds [2]. 1 μL of each well was transferred in a new MTP, which served as the test plate by subsequent inoculation. This bacterial suspension was prepared from strains that were first sub-cultured on agar plates and incubated for 18-24 hours as appropriate. Following incubation, the inoculum was prepared from isolated colonies and adjusted to 0.5 McFarland turbidity standard (1 to 2×10^8 Colony Forming Units (CFU)/mL) in 0.9% saline. The bacterial suspension was then diluted 1:200 in appropriate sterile medium and within 15 minutes 100 μL/well were dispensed. Negative controls (lack of bacterial cells) and growth control wells (lack of compound) were included in all plates. MTPs were incubated for 18-24 hours at 35±2° C. in ambient air. The MIC value of each compound, expressed as μg/mL, was determined as the lowest concentration required for complete growth inhibition (no visible growth). • [1] CLSI (2015) Methods for dilution antimicrobial susceptibility tests for bacteria that grow aerobically; Approved Standard, Tenth Edition. CLSI Document M7-A10 (ISBN 1-56238-987-4). Wayne, PA: Clinical and Laboratory Standards Institute, 19087, USA. • [2] CLSI (2017) Performance Standards for Antimicrobial Susceptibility Testing; Twenty-Fifth Informational Supplement. CLSI Document M100-S27, CLSI, Wayne, Pennsylvania 19087, USA.
Table 1 provides the Minimal Inhibitory Concentrations (MIC) in micrograms per millilitre of the compounds of present invention obtained against the strain Escherichia coli ATCC 25922.
On the technique in general: Broth dilution looks for growth in wells or tubes with falling amounts of substance.
On to `O=C(CN1CC2CC2C1)Nc1cc(F)c2c(c1)CC(CNCCC1CN(c3cnc4c(n3)NC(=O)CO4)C(=O)O1)C2` (stereo not shown) [Example 12, 2-(3-azabicyclo[3.1.0]hexan-3-yl)-N-[7-fluoro-2-[2-[2-oxo-3-(3-oxo-4H-pyrazino[2,3-b][1,4]oxazin-6-yl)oxazolidin-5-yl]ethylaminomethyl]indan-5-yl]acetamide], for which the MIC (commonly the smallest concentration in the dilution series that meets the test's criterion for growth inhibition) stood at 0.125 µg/mL (≈ 0.221 µM).

`C[C@H](C(=O)Nc1cc(F)c2c(c1)C(O)C(CN1CCC3(CC1)CN(c1cnc4c(n1)NC(=O)CO4)C(=O)O3)C2)N(C)C` (stereo partly drawn) [Example 65, (2R)-2-(Dimethylamino)-N-[7-fluoro-3-hydroxy-2-[[2-oxo-3-(3-oxo-4H-pyrazino[2,3-b][1,4]oxazin-6-yl)-1-oxa-3,8-diazaspiro[4.5]decan-8-yl]methyl]indan-5-yl]propanamide]: the MIC was 0.5 µg/mL (≈ 0.857 µM).

In turn, `N[C@]1(C(=O)Nc2cc(F)c3c(c2)CC(CNCCC2CN(c4cnc5c(n4)NC(=O)CO5)C(=O)O2)C3)CCOC1.O=C(O)C(F)(F)F` (stereo partly drawn) [Example 40, (3R)-3-amino-N-[7-fluoro-2-[[2-[2-oxo-3-(3-oxo-4H-pyrazino[2,3-b][1,4]oxazin-6-yl)oxazolidin-5-yl]ethylamino]methyl]indan-5-yl]tetrahydrofuran-3-carboxamide; 2,2,2-trifluoroacetic acid] returned an MIC of 0.25 µg/mL. Under `O=C1COc2ncc(N3CC(CCNCC4Cc5cc(NC(=O)[C@@H]6C[C@@H](O)CN6)cc(F)c5C4)OC3=O)nc2N1` (stereo partly drawn) [Example 37, (2S,4R)-N-[7-fluoro-2-[[2-[2-oxo-3-(3-oxo-4H-pyrazino[2,3-b][1,4]oxazin-6-yl)oxazolidin-5-yl]ethylamino]methyl]indan-5-yl]-4-hydroxy-pyrrolidine-2-carboxamide] stands 0.5 µg/mL (≈ 0.9 µM); under `Cc1nc(NC(=O)[C@@H](C)N(C)C)cc2c1CC(CNCCC1CN(c3cnc4c(n3)NC(=O)CO4)C(=O)O1)C2` (stereo partly drawn) [Example 28, (2R)-2-(dimethylamino)-N-[1-methyl-6-[[2-[2-oxo-3-(3-oxo-4H-pyrazino[2,3-b][1,4]oxazin-6-yl)oxazolidin-5-yl]ethylamino]methyl]-6,7-dihydro-5H-cyclopenta[c]pyridin-3-yl]propanamide], 0.5 µg/mL (≈ 0.928 µM); under `O=C1COc2ncc(N3CC4(CCN(CC5Cc6cc(NC(=O)[C@@H]7C[C@H](O)CN7)cc(F)c6C5)CC4)OC3=O)nc2N1` (stereo partly drawn) [Example 57, (2S,4S)—N-[7-Fluoro-2-[[2-oxo-3-(3-oxo-4H-pyrazino[2,3-b][1,4]oxazin-6-yl)-1-oxa-3,8-diazaspiro[4.5]decan-8-yl]methyl]indan-5-yl]-4-hydroxy-pyrrolidine-2-carboxamide], at most 0.06 µg/mL.

Consider `Cc1ncc(C(=O)Nc2cc(F)c3c(c2)CC(CNCCC2CN(c4cnc5c(n4)NC(=O)CO5)C(=O)O2)C3)o1` (stereo not shown) [Example 15, N-[7-fluoro-2-[[2-[2-oxo-3-(3-oxo-4H-pyrazino[2,3-b][1,4]oxazin-6-yl)oxazolidin-5-yl]ethylamino]methyl]indan-5-yl]-2-methyl-oxazole-5-carboxamide], for which the MIC came out at 0.25 µg/mL (≈ 0.453 µM).

As for `C[C@H](C(=O)Nc1cc(F)c2c(c1)CC(CNCC[C@H]1CN(c3cnc4c(n3)NC(=O)CO4)C(=O)O1)C2)N(C)C` (single isomer, unassigned) [Example 68], the MIC worked out at 0.125 µg/mL (≈ 0.231 µM). As for `C[C@H](C(=O)Nc1cc(F)c2c(c1)CC(CN(C)CCC1CN(c3cnc4c(n3)NC(=O)CO4)C(=O)O1)C2)N(C)C` (stereo partly drawn) [Example 58, (2R)-2-(Dimethylamino)-N-[7-fluoro-2-[[methyl-[2-[2-oxo-3-(3-oxo-4H-pyrazino[2,3-b][1,4]oxazin-6-yl)oxazolidin-5-yl]ethyl]amino]methyl]indan-5-yl]propanamide], the MIC was determined as 0.25 µg/mL (≈ 0.45 µM).

In turn, `Cc1cc(NC(=O)[C@@H](C)N(C)C)nc2c1CC(CNCCC1CN(c3cnc4c(n3)NC(=O)CO4)C(=O)O1)C2` (stereo partly drawn) [Example 25, (2R)-2-(dimethylamino)-N-[4-methyl-6-[[2-[2-oxo-3-(3-oxo-4H-pyrazino[2,3-b][1,4]oxazin-6-yl)oxazolidin-5-yl]ethylamino]methyl]-6,7-dihydro-5H-cyclopenta[b]pyridin-2-yl]propanamide] returned an MIC of 1 µg/mL (≈ 1.86 µM).
